Assay [1] deals with T1, 5-HT1B (h) (Homo sapiens, UniProt P28222).
T1 construct: host or cells: Chem-1 (RBL) cells
Put plainly: Competition assay to measure binding affinity at 5-HT1B receptor. As to conditions: test ligand 10 μM; [3H]GR125743 1 nM.

Assay [2] addresses T2, 5-HT1D (r) (Rattus norvegicus, UniProt P28565).
T2 construct: host or cells: CHO cells
Put plainly: Competition assay to measure binding affinity at 5-HT1D receptor. As to conditions: test ligand 10 μM; [3H]serotonin 1 nM.

The target of assay [3] is T3, 5-HT2B (h) (Homo sapiens, UniProt P41595).
T3 construct: host or cells: CHO cells
T3 sequence (P41595 whole entry): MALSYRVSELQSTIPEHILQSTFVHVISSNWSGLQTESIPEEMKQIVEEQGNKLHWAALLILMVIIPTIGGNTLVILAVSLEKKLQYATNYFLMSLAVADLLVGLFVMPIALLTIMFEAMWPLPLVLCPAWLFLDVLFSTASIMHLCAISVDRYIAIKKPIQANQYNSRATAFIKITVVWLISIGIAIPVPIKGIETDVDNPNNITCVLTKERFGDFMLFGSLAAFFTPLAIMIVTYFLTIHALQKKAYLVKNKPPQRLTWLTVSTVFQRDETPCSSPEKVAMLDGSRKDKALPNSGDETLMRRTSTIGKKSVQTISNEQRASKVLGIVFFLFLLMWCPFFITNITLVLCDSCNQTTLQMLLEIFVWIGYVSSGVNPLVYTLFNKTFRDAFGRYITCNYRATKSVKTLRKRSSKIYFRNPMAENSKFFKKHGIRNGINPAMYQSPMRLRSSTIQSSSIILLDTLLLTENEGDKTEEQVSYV
Put plainly: Competition assay to measure binding affinity at 5-HT2B receptor. To be noted: test ligand 10 μM; [3H]mesulergine 2 nM.

The target of assay [4] is T4, 5-HT2C (h) (Homo sapiens, UniProt P28335).
T4 construct: host or cells: HEK-293 cells
T4 sequence (P28335 33-458): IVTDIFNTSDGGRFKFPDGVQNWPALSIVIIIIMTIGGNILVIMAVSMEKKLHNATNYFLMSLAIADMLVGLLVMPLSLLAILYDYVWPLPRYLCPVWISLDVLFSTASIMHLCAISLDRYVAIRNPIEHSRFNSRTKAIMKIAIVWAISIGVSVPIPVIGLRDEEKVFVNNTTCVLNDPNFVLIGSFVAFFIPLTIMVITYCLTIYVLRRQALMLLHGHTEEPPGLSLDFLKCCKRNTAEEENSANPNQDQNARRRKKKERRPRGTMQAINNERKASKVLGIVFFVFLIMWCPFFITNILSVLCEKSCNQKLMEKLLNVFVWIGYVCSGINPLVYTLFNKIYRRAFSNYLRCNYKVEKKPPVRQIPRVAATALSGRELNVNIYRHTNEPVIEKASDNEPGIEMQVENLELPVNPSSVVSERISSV
Put plainly: Competition assay to measure binding affinity at 5-HT2C receptor. To be noted: test ligand 10 μM; [125I](±)DOI 0.1 nM.

In assay [5] the target is T5, alpha2A (h) (Homo sapiens, UniProt P08913).
T5 construct: host or cells: CHO cells
T5 sequence (P08913 1-465): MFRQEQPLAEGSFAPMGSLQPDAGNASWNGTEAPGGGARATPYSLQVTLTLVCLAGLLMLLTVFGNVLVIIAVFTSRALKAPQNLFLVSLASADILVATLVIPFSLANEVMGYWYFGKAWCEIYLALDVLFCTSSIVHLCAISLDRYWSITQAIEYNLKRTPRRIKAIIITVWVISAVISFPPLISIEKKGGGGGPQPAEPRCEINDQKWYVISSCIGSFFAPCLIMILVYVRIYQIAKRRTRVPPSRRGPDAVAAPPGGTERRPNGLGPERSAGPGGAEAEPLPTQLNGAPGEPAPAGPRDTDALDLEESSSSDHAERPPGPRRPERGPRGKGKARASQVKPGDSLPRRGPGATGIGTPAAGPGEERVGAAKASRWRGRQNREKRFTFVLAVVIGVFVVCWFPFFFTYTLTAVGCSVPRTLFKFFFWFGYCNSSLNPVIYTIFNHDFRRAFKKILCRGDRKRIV
Put plainly: Competition assay to measure binding affinity at alpha2A receptor. As to conditions: test ligand 10 μM; [3H]RX 821002 1 nM; read-out: α-2A, percent of control-specific binding.

Assay [6] addresses T6, D2 (h) (Homo sapiens, UniProt P14416).
T6 construct: host or cells: HEK-293 cells
Put plainly: Competition assay to measure binding affinity at D2L receptor. To be noted: test ligand 10 μM; [3H]methylspiperone 0.3 nM.

Assay [7] addresses T7, D3 (h) (Homo sapiens, UniProt P35462).
T7 construct: host or cells: CHO cells
Put plainly: Competition assay to measure binding affinity at D3 receptor. To be noted: test ligand 10 μM; [3H]methylspiperone […].

The target in assay [8] is T8, DAT (h) (Homo sapiens, UniProt Q01959).
T8 construct: host or cells: CHO cells
T8 sequence (Q01959 whole entry): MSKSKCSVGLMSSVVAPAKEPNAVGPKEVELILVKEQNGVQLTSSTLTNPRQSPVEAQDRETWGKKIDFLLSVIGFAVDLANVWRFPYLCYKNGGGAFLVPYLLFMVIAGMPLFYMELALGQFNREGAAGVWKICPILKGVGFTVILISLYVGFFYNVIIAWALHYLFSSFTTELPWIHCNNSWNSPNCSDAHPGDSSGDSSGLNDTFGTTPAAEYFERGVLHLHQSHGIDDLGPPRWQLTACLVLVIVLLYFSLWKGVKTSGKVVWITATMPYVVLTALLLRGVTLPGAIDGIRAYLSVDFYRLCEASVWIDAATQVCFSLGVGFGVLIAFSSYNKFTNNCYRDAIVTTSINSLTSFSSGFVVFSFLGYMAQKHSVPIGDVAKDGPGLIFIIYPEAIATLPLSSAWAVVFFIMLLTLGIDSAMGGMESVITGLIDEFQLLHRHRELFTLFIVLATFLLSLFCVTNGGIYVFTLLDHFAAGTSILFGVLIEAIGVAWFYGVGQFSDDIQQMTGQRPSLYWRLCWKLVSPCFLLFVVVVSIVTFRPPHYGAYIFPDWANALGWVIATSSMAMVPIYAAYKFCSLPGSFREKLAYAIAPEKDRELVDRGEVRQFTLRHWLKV
Put plainly: Competition assay to measure binding affinity at dopamine transporter (DAT). To be noted: test ligand 10 μM; [3H]BTCP 4 nM.

Assay [9] addresses T9, MT1 (ML1A) (h) (Homo sapiens, UniProt P48039).
T9 construct: host or cells: CHO cells
Put plainly: Competition assay to measure binding affinity at MT1 receptor. To be noted: test ligand 10 μM; [125I]2-iodomelatonin 0.01 nM.

Assay [10] has as its target T10, NET (h) (Homo sapiens, UniProt P23975).
T10 construct: host or cells: CHO cells
Put plainly: Competition assay to measure binding affinity at norepinephrine transporter (NET). As to conditions: test ligand 10 μM; [3H]nisoxetine 1 nM.

Each structure is given as a SMILES string.

T1 sequence (P28222 whole entry): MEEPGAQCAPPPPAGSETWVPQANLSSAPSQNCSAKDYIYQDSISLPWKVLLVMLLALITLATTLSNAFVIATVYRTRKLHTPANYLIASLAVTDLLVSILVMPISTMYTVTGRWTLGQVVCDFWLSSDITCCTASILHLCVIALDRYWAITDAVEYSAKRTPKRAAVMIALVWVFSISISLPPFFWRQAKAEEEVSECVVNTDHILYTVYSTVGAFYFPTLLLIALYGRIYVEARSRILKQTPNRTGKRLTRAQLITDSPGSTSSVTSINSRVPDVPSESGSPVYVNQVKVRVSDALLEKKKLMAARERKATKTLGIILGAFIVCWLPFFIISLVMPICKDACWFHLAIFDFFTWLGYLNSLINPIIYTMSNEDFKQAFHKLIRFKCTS
T7 sequence (P35462 whole entry): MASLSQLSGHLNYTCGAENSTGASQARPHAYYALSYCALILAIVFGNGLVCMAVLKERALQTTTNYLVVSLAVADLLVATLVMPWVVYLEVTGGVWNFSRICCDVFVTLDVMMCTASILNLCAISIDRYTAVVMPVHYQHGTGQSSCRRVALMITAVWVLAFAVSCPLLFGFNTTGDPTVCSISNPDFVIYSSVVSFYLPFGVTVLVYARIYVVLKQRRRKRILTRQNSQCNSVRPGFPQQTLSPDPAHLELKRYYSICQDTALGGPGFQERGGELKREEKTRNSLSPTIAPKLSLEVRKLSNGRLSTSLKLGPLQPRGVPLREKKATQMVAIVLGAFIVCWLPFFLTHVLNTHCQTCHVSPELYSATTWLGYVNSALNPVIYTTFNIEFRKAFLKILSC
T10 sequence (P23975 whole entry): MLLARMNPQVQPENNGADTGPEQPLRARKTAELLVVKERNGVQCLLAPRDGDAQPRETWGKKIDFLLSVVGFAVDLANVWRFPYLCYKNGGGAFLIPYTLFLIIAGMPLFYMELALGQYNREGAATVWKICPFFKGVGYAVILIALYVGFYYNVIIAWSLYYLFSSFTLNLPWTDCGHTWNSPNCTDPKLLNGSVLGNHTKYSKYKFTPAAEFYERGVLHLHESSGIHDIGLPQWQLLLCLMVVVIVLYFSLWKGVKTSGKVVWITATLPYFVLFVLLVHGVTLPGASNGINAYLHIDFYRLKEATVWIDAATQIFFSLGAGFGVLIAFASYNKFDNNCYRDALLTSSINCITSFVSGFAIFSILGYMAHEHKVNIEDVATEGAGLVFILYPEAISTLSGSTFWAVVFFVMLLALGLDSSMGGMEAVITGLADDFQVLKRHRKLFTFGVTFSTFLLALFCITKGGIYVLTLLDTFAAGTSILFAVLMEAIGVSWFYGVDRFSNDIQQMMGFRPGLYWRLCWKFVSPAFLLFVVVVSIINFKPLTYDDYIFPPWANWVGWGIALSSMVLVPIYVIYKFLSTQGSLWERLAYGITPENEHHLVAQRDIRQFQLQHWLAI
T6 sequence (P14416 whole entry): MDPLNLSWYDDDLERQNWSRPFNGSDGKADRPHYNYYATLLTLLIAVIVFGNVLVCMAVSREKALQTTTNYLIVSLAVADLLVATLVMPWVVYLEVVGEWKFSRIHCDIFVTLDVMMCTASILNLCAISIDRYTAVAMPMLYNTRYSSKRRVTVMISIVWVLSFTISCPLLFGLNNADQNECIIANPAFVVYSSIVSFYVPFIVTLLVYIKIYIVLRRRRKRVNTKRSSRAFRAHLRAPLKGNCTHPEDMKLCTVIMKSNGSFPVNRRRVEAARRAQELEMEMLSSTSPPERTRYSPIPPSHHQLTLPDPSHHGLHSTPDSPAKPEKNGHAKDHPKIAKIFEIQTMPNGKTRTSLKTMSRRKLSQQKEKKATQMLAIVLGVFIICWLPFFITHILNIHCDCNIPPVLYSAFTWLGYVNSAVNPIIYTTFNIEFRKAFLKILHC
T9 sequence (P48039 whole entry): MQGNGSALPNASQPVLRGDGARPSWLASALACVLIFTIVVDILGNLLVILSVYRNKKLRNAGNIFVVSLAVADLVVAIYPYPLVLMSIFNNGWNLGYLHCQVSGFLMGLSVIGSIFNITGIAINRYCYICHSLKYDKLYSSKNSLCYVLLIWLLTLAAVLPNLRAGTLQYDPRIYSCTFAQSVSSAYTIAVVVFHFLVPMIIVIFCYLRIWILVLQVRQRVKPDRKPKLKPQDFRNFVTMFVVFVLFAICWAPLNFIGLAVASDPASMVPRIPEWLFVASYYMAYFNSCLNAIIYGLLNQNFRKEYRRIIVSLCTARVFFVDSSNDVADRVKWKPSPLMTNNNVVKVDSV
T2 sequence (P28565 whole entry): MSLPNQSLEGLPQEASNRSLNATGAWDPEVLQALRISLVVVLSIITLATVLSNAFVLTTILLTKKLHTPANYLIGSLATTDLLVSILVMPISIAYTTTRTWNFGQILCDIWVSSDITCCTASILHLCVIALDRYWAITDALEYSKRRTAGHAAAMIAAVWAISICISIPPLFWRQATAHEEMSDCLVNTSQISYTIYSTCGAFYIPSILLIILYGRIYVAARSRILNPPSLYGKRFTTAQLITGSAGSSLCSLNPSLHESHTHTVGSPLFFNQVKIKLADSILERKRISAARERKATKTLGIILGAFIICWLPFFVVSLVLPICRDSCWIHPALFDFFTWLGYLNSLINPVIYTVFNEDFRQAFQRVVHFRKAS

Take `CC(NC(C)(C)C)C(=O)c1cccc(Cl)c1` (stereo not shown) [Bupropion, reference compound]: the “HT1B, percent of control-specific binding” value (“HT1B, percent” below) in [1] is listed as 9%. For the same compound, the “HT1D, percent of control-specific binding” value (from here on “HT1D, percent”) in assay [2] is recorded as −1%. Also, the “HT2B, percent of control-specific binding” value (“HT2B, percent” below) in [3] was −2%. Also, the “HT2C, percent of control-specific binding” value (from here on “HT2C, percent”) in assay [4] came to 1%. The inhibition at 10 µM in assay [5] is 2%. The “D2, percent of control-specific binding” value in assay [6] was −5%. For the same compound, the “D3, percent of control-specific binding” value in assay [7] amounted to 3%. Further, the “DAT, percent of control-specific binding” value in [8] is 92%. In addition, in assay [9], the “MT1, percent of control-specific binding” value was 83%.

On to `CNCC[C@H](Oc1cccc2ccccc12)c1cccs1` [Duloxetine, reference compound], for which, in assay [1], the “HT1B, percent” value was determined as 52%. Also, in assay [2], the “HT1D, percent” value came to 63%. Besides, the “HT2B, percent” value in assay [3] is reported as 95%. The “HT2C, percent” value in assay [4] turned out to be 92%. Further, the “D2, percent of control-specific binding” value in assay [6] is 24%. Moreover, the “D3, percent of control-specific binding” value in assay [7] is 66%. Besides, the “MT1, percent of control-specific binding” value in assay [9] is given as 23%.

On to `O=c1n(CCCN2CCN(c3cccc(Cl)c3)CC2)nc2ccccn12` [Trazodone, reference compound], for which the “HT1B, percent” value in assay [1] was 61%. Also, the “HT2B, percent” value in assay [3] is 97%. Also, in [4], the “HT2C, percent” value was 93%. Also, the inhibition at 10 µM in assay [5] came out at 91%. Besides, the “D2, percent of control-specific binding” value in assay [6] was determined as 61%. Moreover, in assay [7], the “D3, percent of control-specific binding” value is recorded as 89%. Also, the “DAT, percent of control-specific binding” value in assay [8] is 24%. For the same compound, in [9], the “MT1, percent of control-specific binding” value turned out to be 14%. The “NET, percent of control-specific binding” value in [10] is −1%.

As for `COc1ccc2[nH]cc(CCNC(C)=O)c2c1` [Melatonin, reference compound], in [1], the “HT1B, percent” value was found to be 0%. The “HT1D, percent” value in assay [2] is on record as 13%. Moreover, in [3], the “HT2B, percent” value was found to be 52%. The “HT2C, percent” value in assay [4] was 19%. Further, the inhibition at 10 µM in assay [5] was -7%. Besides, the “D2, percent of control-specific binding” value in [6] is on record as −20%. Also, the “D3, percent of control-specific binding” value in [7] is 2%. Besides, the “DAT, percent of control-specific binding” value in [8] came to 4%. The “MT1, percent of control-specific binding” value in assay [9] is reported as 98%. In assay [10], the “NET, percent of control-specific binding” value is −2%.

On to `COc1ccc2cccc(CCNC(C)=O)c2c1` [Agomelatine, reference compound], for which the “HT1B, percent” value in assay [1] is given as −9%. Also, the “HT1D, percent” value in [2] amounted to 10%. Further, the “HT2B, percent” value in assay [3] is 93%. Also, the “HT2C, percent” value in assay [4] was determined as 92%. For the same compound, in assay [5], the inhibition at 10 µM amounted to 2%. In assay [6], the “D2, percent of control-specific binding” value is on record as −4%. Moreover, the “D3, percent of control-specific binding” value in [7] stood at 6%. Moreover, the “DAT, percent of control-specific binding” value in assay [8] was 1%. In addition, the “MT1, percent of control-specific binding” value in [9] is listed as 99%. For the same compound, the “NET, percent of control-specific binding” value in assay [10] was 1%.

As to `CN(C)CCCN1c2ccccc2CCc2ccccc21` [Imipramine, reference compound], in [1], the “HT1B, percent” value is 36%. Moreover, the “HT1D, percent” value in [2] worked out at 39%. Moreover, in assay [3], the “HT2B, percent” value stood at 94%. Besides, the “HT2C, percent” value in [4] is reported as 98%. In [5], the inhibition at 10 µM was 57%. The “D2, percent of control-specific binding” value in assay [6] was found to be 82%. Further, the “D3, percent of control-specific binding” value in assay [7] is recorded as 92%. Further, in assay [8], the “DAT, percent of control-specific binding” value is 23%. In addition, the “MT1, percent of control-specific binding” value in assay [9] is 29%. Further, the “NET, percent of control-specific binding” value in assay [10] worked out at 99%.

(Values after patent US12428408B2, “Fused heterocyclic mescaline derivatives” (Enveric Biosciences Canada Inc., priority 2022, dated 2025).)
